Test results: patent US20220264878A1, “HERBICIDAL COMPOSITION CONTAINING R-TYPE PYRIDYLOXY CARBOXYLIC ACID DERIVATIVE AND USE THEREOF” (Qingdao Kingagroot Chemical Compound Co., Ltd., priority 2019, published 2022)

How the values were obtained:
Test in all cases: Post-emergence foliage spray, pot culture, fresh weight inhibition (Tables 1-48, 51-98, 101-148; 24 days)
Format in all cases: in vivo
Stellaria media = details: Table 105
Procedure, shortened: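 Pot-grown weeds were thinned to 15 per pot (45 per treatment) and sprayed on foliage at the 5–6-leaf stage for grasses or the 6–7-leaf stage for broadleaves. Agents were dissolved in acetone with 0.1% Tween-80 and applied at 450 kg/ha spray volume and 0.3 MPa. Plants were then kept in a greenhouse. Above-ground fresh weight of survivors, with dead plants counted as zero, gave inhibition versus a solvent/emulsifier blank.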

Acalypha australis = tested on: Acalypha australis
Procedure, shortened: (§1)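 Greenhouse pot-grown weeds (15 per pot, 3 pots, 4 replicates) at the 5–6-leaf (grasses) or 6–7-leaf (broadleaf) stage were sprayed once on foliage at 450 kg/ha spray volume, 0.3 MPa. Acetone solutions were diluted in 0.1% Tween-80. Aboveground fresh weight versus blank control was recorded after 24 days.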

Ammannia arenaria = details: Table 103
Procedure, shortened: as §1

Beckmannia syzigachne = tested on: Beckmannia syzigachne
Procedure, shortened: as §1

Chloris virgata = tested on: Chloris virgata
Procedure, shortened: as §1

Cirsium setosum = details: Table 111
Procedure, shortened: as §1

Setaria faberi = tested on: Setaria faberi
Procedure, shortened: as §1

Sinapis arvensis = tested on: Sinapis arvensis
Procedure, shortened: as §1

Solanum nigrum = tested on: Solanum nigrum
Procedure, shortened: as §1

Sonchus oleraceus L. = tested on: Sonchus oleraceus L.
Procedure, shortened: as §1

Xanthium strumarium = tested on: Xanthium strumarium
Procedure, shortened: as §1

Abutilon theophrasti = tested on: Abutilon theophrasti
Procedure, shortened: as §1

Capsella bursa-pastoris = tested on: Capsella bursa-pastoris
Procedure, shortened: as §1

Sonchus arvensis = tested on: Sonchus arvensis
Procedure, shortened: as §1

Conyza Canadensis = tested on: Conyza Canadensis
Procedure, shortened: as §1

Ipomoea purpurea = details: Table 98
Procedure, shortened: as §1

Setaria glauca = details: Table 84
Procedure, shortened: as §1

C[C@@H](Oc1nc(F)c(Cl)c(N)c1Cl)C(=O)[O-].[Na+] [Compound A3, A1 sodium salt]
Control effect (%) of A applied alone in corresponding dose (Stellaria media; 7.5 g a.i./ha): 34.1% | Control effect (%) of A applied alone in corresponding dose (Stellaria media; 15 g a.i./ha): 67.9% | Control effect (%) of A applied alone in corresponding dose (Acalypha australis; A 75 g a.i./ha): 20.7% | Control effect (%) of A applied alone in corresponding dose (Acalypha australis; A 150 g a.i./ha): 51.6% | Control effect (%) of A applied alone in corresponding dose (Ammannia arenaria; 75 g a.i./ha): 30.4% | Control effect (%) of A applied alone in corresponding dose (Ammannia arenaria; 150 g a.i./ha): 66.2% | Control effect (%) of A applied alone in corresponding dose (Beckmannia syzigachne; A 75 g a.i./ha): 23.0% | Control effect (%) of A applied alone in corresponding dose (Beckmannia syzigachne; A 150 g a.i./ha): 42.8% | Control effect (%) of A applied alone in corresponding dose (Chloris virgata; A 75 g a.i./ha): 22.0% | Control effect (%) of A applied alone in corresponding dose (Chloris virgata; A 150 g a.i./ha): 48.3% | Control effect (%) of A applied alone in corresponding dose (Cirsium setosum; 30 g a.i./ha): 31.5% | Control effect (%) of A applied alone in corresponding dose (Cirsium setosum; 60 g a.i./ha): 64.3% | Control effect (%) of A applied alone in corresponding dose (Setaria faberi; A 30 g a.i./ha): 32.5% | Control effect (%) of A applied alone in corresponding dose (Setaria faberi; A 60 g a.i./ha): 55.4% | Control effect (%) of A applied alone in corresponding dose (Sinapis arvensis; A 15 g a.i./ha): 33.2% | Control effect (%) of A applied alone in corresponding dose (Sinapis arvensis; A 30 g a.i./ha): 72.7% | Control effect (%) of A applied alone in corresponding dose (Solanum nigrum; A 75 g a.i./ha): 16.9% | Control effect (%) of A applied alone in corresponding dose (Solanum nigrum; A 150 g a.i./ha): 37.5% | Control effect (%) of A applied alone in corresponding dose (Sonchus oleraceus L.; A 75 g a.i./ha): 33.8% | Control effect (%) of A applied alone in corresponding dose (Sonchus oleraceus L.; A 150 g a.i./ha): 55.5% | Control effect (%) of A applied alone in corresponding dose (Xanthium strumarium; A 7.5 g a.i./ha): 40.8% | Control effect (%) of A applied alone in corresponding dose (Xanthium strumarium; A 15 g a.i./ha): 77.2%

CC(C)N1C(=O)c2ccccc2NS1(=O)=O [bentazone]
Control effect (%) of B applied alone in corresponding dose (Abutilon theophrasti; bentazone 18.75 g a.i./ha): 5.9% | Control effect (%) of B applied alone in corresponding dose (Abutilon theophrasti; bentazone 37.5 g a.i./ha): 11.8% | Control effect (%) of B applied alone in corresponding dose (Abutilon theophrasti; bentazone 75 g a.i./ha): 49.0% | Control effect (%) of B applied alone in corresponding dose (Abutilon theophrasti; bentazone 150 g a.i./ha): 69.1% | Control effect (%) of B applied alone in corresponding dose (Xanthium strumarium; B 18.75 g a.i./ha): 10.9% | Control effect (%) of B applied alone in corresponding dose (Xanthium strumarium; B 37.5 g a.i./ha): 16.1% | Control effect (%) of B applied alone in corresponding dose (Xanthium strumarium; B 75 g a.i./ha): 46.6% | Control effect (%) of B applied alone in corresponding dose (Xanthium strumarium; B 150 g a.i./ha): 76.5%

Cc1nn(C)cc1C(=O)Oc1c(C(=O)c2ccc(C(F)(F)F)cc2S(C)(=O)=O)c(C)nn1C [bipyrazone]
Control effect (%) of B applied alone in corresponding dose (Capsella bursa-pastoris; bipyrazone 18.75 g a.i./ha): 2.9% | Control effect (%) of B applied alone in corresponding dose (Capsella bursa-pastoris; bipyrazone 37.5 g a.i./ha): 12.9% | Control effect (%) of B applied alone in corresponding dose (Capsella bursa-pastoris; bipyrazone 75 g a.i./ha): 51.1% | Control effect (%) of B applied alone in corresponding dose (Capsella bursa-pastoris; bipyrazone 150 g a.i./ha): 80.3% | Control effect (%) of B applied alone in corresponding dose (Sinapis arvensis; B 1.875 g a.i./ha): 9.9% | Control effect (%) of B applied alone in corresponding dose (Sinapis arvensis; B 3.75 g a.i./ha): 23.8% | Control effect (%) of B applied alone in corresponding dose (Sinapis arvensis; B 7.5 g a.i./ha): 50.8% | Control effect (%) of B applied alone in corresponding dose (Sinapis arvensis; B 15 g a.i./ha): 83.7%

CCOc1nc(F)cc2nc(S(=O)(=O)Nc3c(Cl)cccc3C(=O)OC)nn12 [cloransulam-methyl]
Control effect (%) of B applied alone in corresponding dose (Cirsium setosum; 1.875 g a.i./ha): 13.6% | Control effect (%) of B applied alone in corresponding dose (Cirsium setosum; 3.75 g a.i./ha): 23.1% | Control effect (%) of B applied alone in corresponding dose (Cirsium setosum; 7.5 g a.i./ha): 53.8% | Control effect (%) of B applied alone in corresponding dose (Cirsium setosum; 15 g a.i./ha): 71.9% | Control effect (%) of B applied alone in corresponding dose (Sonchus arvensis; cloransulam-methyl 1.875 g a.i./ha): 6.5% | Control effect (%) of B applied alone in corresponding dose (Sonchus arvensis; cloransulam-methyl 3.75 g a.i./ha): 15.0% | Control effect (%) of B applied alone in corresponding dose (Sonchus arvensis; cloransulam-methyl 7.5 g a.i./ha): 52.8% | Control effect (%) of B applied alone in corresponding dose (Sonchus arvensis; cloransulam-methyl 15 g a.i./ha): 72.9%

CC(C)N(C)S(=O)(=O)NC(=O)c1cc(-n2c(=O)cc(C(F)(F)F)n(C)c2=O)c(F)cc1Cl [saflufenacil]
Control effect (%) of B applied alone in corresponding dose (Conyza Canadensis; saflufenacil 3.75 g a.i./ha): 3.0% | Control effect (%) of B applied alone in corresponding dose (Conyza Canadensis; saflufenacil 7.5 g a.i./ha): 11.9% | Control effect (%) of B applied alone in corresponding dose (Conyza Canadensis; saflufenacil 15 g a.i./ha): 39.2% | Control effect (%) of B applied alone in corresponding dose (Conyza Canadensis; saflufenacil 30 g a.i./ha): 76.5% | Control effect (%) of B applied alone in corresponding dose (Ipomoea purpurea; 3.75 g a.i./ha): 7.9% | Control effect (%) of B applied alone in corresponding dose (Ipomoea purpurea; 7.5 g a.i./ha): 16.0% | Control effect (%) of B applied alone in corresponding dose (Ipomoea purpurea; 15 g a.i./ha): 41.3% | Control effect (%) of B applied alone in corresponding dose (Ipomoea purpurea; 30 g a.i./ha): 75.9% | Control effect (%) of B applied alone in corresponding dose (Sonchus oleraceus L.; B 3.75 g a.i./ha): 5.4% | Control effect (%) of B applied alone in corresponding dose (Sonchus oleraceus L.; B 7.5 g a.i./ha): 13.9% | Control effect (%) of B applied alone in corresponding dose (Sonchus oleraceus L.; B 15 g a.i./ha): 40.9% | Control effect (%) of B applied alone in corresponding dose (Sonchus oleraceus L.; B 30 g a.i./ha): 76.6%

Cc1c(C(=O)c2cnn(C)c2O)ccc(S(C)(=O)=O)c1C1=NOCC1 [topramezone]
Control effect (%) of B applied alone in corresponding dose (Setaria faberi; B 1.875 g a.i./ha): 3.2% | Control effect (%) of B applied alone in corresponding dose (Setaria faberi; B 3.75 g a.i./ha): 11.7% | Control effect (%) of B applied alone in corresponding dose (Setaria faberi; B 7.5 g a.i./ha): 36.5% | Control effect (%) of B applied alone in corresponding dose (Setaria faberi; B 15 g a.i./ha): 75.4% | Control effect (%) of B applied alone in corresponding dose (Setaria glauca; 1.875 g a.i./ha): 7.3% | Control effect (%) of B applied alone in corresponding dose (Setaria glauca; 3.75 g a.i./ha): 10.6% | Control effect (%) of B applied alone in corresponding dose (Setaria glauca; 7.5 g a.i./ha): 35.8% | Control effect (%) of B applied alone in corresponding dose (Setaria glauca; 15 g a.i./ha): 72.3%
